This note sets out measurements from patent publication US20120214822A1 (ASTRAZENECA AB, priority 2007, published 2012).

Where a name gives a salt, the structure may show the parent alone.

In this assay the target is human active recombinant p38α-6His tagged (Homo sapiens, UniProt Q16539). Nature of the assay: P38 Alpha Enzyme Assay (AlphaScreen, biotinylated-ATF2 substrate).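 Note: 0.5 nM final p38α, reaction started with ATP and run 45 min at 37 °C, phospho-ATF2 read by antibody-based AlphaScreen, background wells quenched with EDTA before ATP.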 Type of assay: biochemical. As to conditions: p38 alpha enzyme inhibition; means of replicate determinations; 4 h pre-incubation at 37° C.; SD of assay 0.2-0.3 log units. On the technique in general: Bead proximity is the source of the signal in Alpha formats.
human active recombinant p38α-6His tagged, sequence (Q16539 whole entry): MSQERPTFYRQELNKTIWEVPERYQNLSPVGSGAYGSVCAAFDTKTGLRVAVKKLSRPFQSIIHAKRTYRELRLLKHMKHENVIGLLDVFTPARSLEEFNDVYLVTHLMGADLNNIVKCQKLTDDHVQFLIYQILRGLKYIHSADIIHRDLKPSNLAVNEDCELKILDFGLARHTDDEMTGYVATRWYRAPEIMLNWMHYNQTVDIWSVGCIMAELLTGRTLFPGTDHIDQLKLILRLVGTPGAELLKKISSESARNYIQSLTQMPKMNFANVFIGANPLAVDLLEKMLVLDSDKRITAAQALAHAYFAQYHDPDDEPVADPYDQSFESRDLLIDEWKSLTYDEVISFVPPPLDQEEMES
Usually pIC50 stands for −log10 of the IC50, conventionally taken in molar units. In the case of `Cc1ccc(C)c(CNc2nccn(-c3cc(C(=O)NC4CC4)ccc3C)c2=O)c1` [Example 98, N-Cyclopropyl-3-[3-[[(2,5-dimethylphenyl)methyl]amino]-2-oxo-1(2H)-pyrazinyl]-4-methyl-benzamide], the pIC50 amounted to 7.8.
`Cc1ccc(C(=O)NC2CC2)cc1-n1ccnc(N[C@H](CO)c2ccccc2)c1=O` [Example 80, N-Cyclopropyl-3-[3-[[(1S)-2-hydroxy-1-phenylethyl]amino]-2-oxo-1(2H)-pyrazinyl]-4-methyl-benzamide]: the pIC50 turned out to be 7.9.
`Cc1ccc(C(=O)NC2CC2)cc1-n1ccnc(N[C@@H](c2ccccc2)C2CCN(C(=O)OCc3ccccc3)CC2)c1=O` [Example 102, 4-[(R)-[[4-[5-[(Cyclopropylamino)carbonyl]-2-methylphenyl]-3,4-dihydro-3-oxopyrazinyl]amino]phenylmethyl]-1-piperidinecarboxylic acid, phenylmethyl ester]: the pIC50 amounted to 6.3.
As for `CCC(C)NCCOc1ccccc1C1(Nc2nccn(-c3cc(C(=O)NC4CC4)ccc3C)c2=O)CC1` (stereo not shown) [Example 246, N-Cyclopropyl-4-methyl-3-[3-[[1-[2-[2-[(1-methylpropyl)amino]ethoxy]phenyl]cyclopropyl]amino]-2-oxo-1(2H)-pyrazinyl]-benzamide], the pIC50 is 9.8.
With `Cc1ccc(C(=O)NC2CC2)cc1-n1ccnc(NC2(c3ccccc3OCCN[C@H](C)CO)CC2)c1=O` [Example 249, N-Cyclopropyl-3-[3-[[1-[2-[2-[[(1R)-2-hydroxy-1-methylethyl]amino]ethoxy]phenyl]cyclopropyl]amino]-2-oxo-1(2H)-pyrazinyl]-4-methyl-benzamide], the pIC50 is given as 9.9.
As to `Cc1ccc(C(=O)NC2CC2)cc1-n1ccnc(NCc2ccc(S(C)(=O)=O)cc2)c1=O` [Example 25, N-Cyclopropyl-4-methyl-3-[3-[[[4-(methylsulfonyl)phenyl]methyl]amino]-2-oxo-1(2H)-pyrazinyl]-benzamide], the pIC50 was 5.5.
To `Cc1ccc(C(=O)NC2CC2)cc1-n1cc(Cl)nc(NCCc2ccccc2)c1=O` [Example 110, 3-[5-Chloro-2-oxo-3-[(2-phenylethyl)amino]-1(2H)-pyrazinyl]-N-cyclopropyl-4-methyl-benzamide] belongs 6.7; to `Cc1ccc(C(=O)NC2CC2)cc1-n1ccnc(N[C@@H](c2ccccc2)[C@@H](C)CNCC(C)(C)C)c1=O` [Example 157, N-Cyclopropyl-3-[3-[[(1R,2S)-3-[(2,2-dimethylpropyl)amino]-2-methyl-1-phenylpropyl]amino]-2-oxo-1(2H)-pyrazinyl]-4-methyl-benzamide], 9.
To `Cc1ccc(C(=O)NC2CC2)cc1-n1ccnc(NCc2ccccn2)c1=O` [Example 23, N-Cyclopropyl-4-methyl-3-[2-oxo-3-[(2-pyridinylmethyl)amino]-1(2H)-pyrazinyl]-benzamide] belongs 6.9; to `Cc1ccc(C(=O)NC2CC2)cc1-n1ccnc(N2CCCCC2)c1=O` [Example 76, N-Cyclopropyl-4-methyl-3-[2-oxo-3-(1-pipendinyl)-1(2H)-pyrazinyl]-benzamide], 6.8; to `Cc1ccc(C(=O)NC2CC2)cc1-n1ccnc(NC(C)(C)c2ccccc2OC2CCNCC2)c1=O` [Example 219, N-Cyclopropyl-4-methyl-3-[3-[[1-methyl-1-[2-(4-piperidinyloxy)phenyl]ethyl]amino]-2-oxo-1(2H)-pyrazinyl]-benzamide], 9.3.
As for `Cc1ccc(C(=O)NC2CC2)cc1-n1ccnc(NCC(c2ccccc2)N2CCCC2)c1=O` (stereo not shown) [Example 63, N-Cyclopropyl-4-methyl-3-[2-oxo-3-[[2-phenyl-2-(1-pyrrolidinyl)ethyl]amino]-1(2H)-pyrazinyl]-benzamide], the pIC50 amounted to 6.3.
In the case of `Cc1ccc(C(=O)NC2CC2)cc1-n1ccnc(NC(C)(C)c2ccccc2OCC2CCNCC2)c1=O` [Example 214, N-Cyclopropyl-4-methyl-3-[3-[[1-methyl-1-[2-(4-piperidinylmethoxy)phenyl]ethyl]amino]-2-oxo-1(2H)-pyrazinyl]-benzamide], the pIC50 was 9.1.
As to `Cc1ccc(C(=O)NC2CC2)cc1-n1ccnc(N[C@@H](c2ccccc2)[C@@H](C)CN2CCC(F)(F)CC2)c1=O` [Example 175, N-Cyclopropyl-3-[3-[[(1R,2S)-3-(4,4-difluoro-1-piperidinyl)-2-methyl-1-phenylpropyl]amino]-2-oxo-1(2H)-pyrazinyl]-4-methyl-benzamide], the pIC50 is recorded as 9.
For `Cc1ccc(C(=O)NC2CC2)cc1-n1ccnc(N[C@@H](c2ccccc2)[C@@H](C)CN2CCSCC2)c1=O` [Example 189, N-Cyclopropyl-4-methyl-3-[3-[[(1R,2S)-2-methyl-1-phenyl-3-(4-thiomorpholinyl)propyl]amino]-2-oxo-1(2H)-pyrazinyl]-benzamide] the value was 9.2; for `CNCCOc1ccccc1C(C)(C)Nc1nccn(-c2cc(C(=O)NC3CC3)cc(F)c2C)c1=O` [Example 169, N-Cyclopropyl-3-fluoro-4-methyl-5-[3-[[1-methyl-1-[2-[2-(methylamino)ethoxy]phenyl]ethyl]amino]-2-oxo-1(2H)-pyrazinyl]-benzamide], 9.9.
In the case of `Cc1ccc(C(=O)NC2CC2)cc1-n1ccnc(N[C@@H](c2cccc3ccccc23)[C@@H](C)CO)c1=O` [Example 137, N-Cyclopropyl-3-[3-[[(1R,2R)-3-hydroxy-2-methyl-1-(1-naphthalenyl)propyl]amino]-2-oxo-1(2H)-pyrazinyl]-4-methyl-benzamide], the pIC50 worked out at 8.1.
For the compound `Cc1ccc(C(=O)NC2CC2)cc1-n1ccnc(NCc2cccc(C(=O)NC3CC3)c2)c1=O` [Example 69, N-Cyclopropyl-3-[3-[[[3-[(cyclopropylamino)carbonyl]phenyl]methyl]amino]-2-oxo-1(2H)-pyrazinyl]-4-methyl-benzamide], the pIC50 was found to be 6.2.
Turning to `Cc1ccc(C(=O)NC2CC2)cc1-n1ccnc(NC[C@H](O)c2ccccc2)c1=O` [Example 55, N-Cyclopropyl-3-[3-[[(2R)-2-hydroxy-2-phenylethyl]amino]-2-oxo-1(2H)-pyrazinyl]-4-methyl-benzamide], the negative logarithm of the IC50 (pIC50) was 6.5.
As for `CCNCCOc1ccccc1C1(Nc2nccn(-c3cc(C(=O)NC4CC4)ccc3C)c2=O)CCC1` [Example 269, N-Cyclopropyl-3-[3-[[1-[2-[2-(ethylamino)ethoxy]phenyl]cyclobutyl]amino]-2-oxo-1(2H)-pyrazinyl]-4-methyl-benzamide], the negative logarithm of the IC50 (pIC50) came out at 9.9.
To `Cc1cccc([C@H](Nc2nccn(-c3cc(C(=O)NC4CC4)ccc3C)c2=O)[C@@H](C)CN2CCCC2)c1` [Example 276, N-Cyclopropyl-3-[3-[[(1R,2S)-1-(3-methylphenyl)-2-methyl-3-(1-pyrrolidinyl)propyl]amino]-2-oxo-1(2H)-pyrazinyl]-4-methyl-benzamide] belongs 8.8; to `CCN(CC)C[C@H](C)[C@@H](Nc1nccn(-c2cc(C(=O)NC3CC3)ccc2C)c1=O)c1ccccc1` [Example 146, N-cyclopropyl-3-[3-[[(1R,2S)-3-(diethylamino)-2-methyl-1-phenylpropyl]amino]-2-oxo-1(2H)-pyrazinyl]-4-methyl-benzamide], 8.9.
For the compound `Cc1ccc(C(=O)NC2CC2)cc1-n1ccnc(NC(CN2CCCC2)c2ccccc2)c1=O` (stereo not shown) [Example 34, N-Cyclopropyl-4-methyl-3-[2-oxo-3-[[1-phenyl-2-(1-pyrrolidinyl)ethyl]amino]-1(2H)-pyrazinyl]-benzamide], the pIC50 is listed as 6.4.
On to `Cc1ccc(C(=O)NC2CC2)cc1-n1ccnc(NC2(c3ccccc3OC[C@@H](O)CNCCO)CC2)c1=O` [Example 302, N-Cyclopropyl-3-[3-({1-[2-({(2S)-2-hydroxy-3-[(2-hydroxyethyl)amino]propyl}oxy)phenyl]cyclopropyl}amino)-2-oxopyrazin-1(2H)-yl]-4-methylbenzamide], for which the pIC50 is 10.
For `CNCCOc1c(F)cccc1C1(Nc2nccn(-c3cc(C(=O)NC4CC4)ccc3C)c2=O)CC1` [Example 287, N-Cyclopropyl-3-{3-[(1-{3-fluoro-2-[2-(methylamino)ethoxy]phenyl}cyclopropyl)amino]-2-oxopyrazin-1(2H)-yl}-4-methylbenzamide] the value was 9.3; for `COC[C@@H]1CCCN1C[C@H](C)[C@@H](Nc1nccn(-c2cc(C(=O)NC3CC3)ccc2C)c1=O)c1ccccc1` [Example 149, N-Cyclopropyl-3-[3-[[(1R,2S)-3-[(2S)-2-(methoxymethyl)-1-pyrrolidinyl]-2-methyl-1-phenylpropyl]amino]-2-oxo-1(2H)-pyrazinyl]-4-methyl-benzamide], 8.9.
Turning to `CC[C@@H](Nc1nccn(-c2cc(C(=O)NOC)ccc2C)c1=O)c1ccccc1` [Example 113, N-Methoxy-4-methyl-3-[2-oxo-3-[[(1R)-1-phenylpropyl]amino]-1(2H)-pyrazinyl]-benzamide, trifluoroacetate], the pIC50 worked out at 9.8.
For `Cc1ccc(C(=O)NC2CC2)cc1-n1ccnc(NC(C)(C)Cc2ccc(F)cc2)c1=O` [Example 62, N-Cyclopropyl-3-[3-[[2-(4-fluorophenyl)-1,1-dimethylethyl]amino]-2-oxo-1(2H)-pyrazinyl]-4-methyl-benzamide] the value was 7; for `Cc1ccc(C(=O)NC2CC2)cc1-n1ccnc(NC2(c3cccc(F)c3OCCNC[C@@H](C)O)CC2)c1=O` [Example 283, N-Cyclopropyl-3-[3-({1-[3-fluoro-2-(2-{[(2R)-2-hydroxypropyl]amino}ethoxy)phenyl]cyclopropyl}amino)-2-oxopyrazin-1(2H)-yl]-4-methylbenzamide], 9.7.
To `COc1ccccc1C1CCCN1c1nccn(-c2cc(C(=O)NC3CC3)ccc2C)c1=O` (stereo not shown) [Example 97, N-Cyclopropyl-3-[3-[2-(2-methoxyphenyl)-1-pyrrolidinyl]-2-oxo-1(2H)-pyrazinyl]-4-methyl-benzamide] belongs 8.7.
For the compound `Cc1ccc(C(=O)NC2CC2)cc1-n1ccnc(NCc2cccnc2)c1=O` [Example 24, N-Cyclopropyl-4-methyl-3-[2-oxo-3-[(3-pyridinylmethyl)amino]-1(2H)-pyrazinyl]-benzamide], the pIC50 amounted to 6.3.
